Values quoted from earlier work, collected in patent US10172940B2 (priority 2009, dated 2019).

Tested on: canine visceral leishmaniasis (CVL)

Molecule: Oc1ncnc2[nH]ncc12 [allopurinol]
- parasitological cure and PCR result (20 months of treatment): without parasitological cure or negative results for PCR
- clinical recovery / clinical improvement (dog, in vivo): 9/10
- dogs remaining positive for parasites (culture, PCR of lymph node, parasitological aspect) (dog, in vivo): 8 dogs

Molecule: N=C(N)c1ccc(OCCCCCOc2ccc(C(=N)N)cc2)cc1 [pentamidine]
- clinical recovery / clinical improvement (dog, in vivo): improve clinically
- recurrence of the disease (dog, in vivo): show recurrence of the disease

Molecule: Meglumine antimoniate
- treated dogs from which parasites were recovered (15 dogs treated): 79%
- dogs PCR positive after treatment (dog, in vivo): 5/6

Molecule: NC[C@@H]1O[C@H](O[C@H]2[C@@H](O)[C@H](O[C@@H]3[C@@H](O)[C@H](N)C[C@H](N)[C@H]3O[C@H]3O[C@H](CO)[C@@H](O)[C@H](O)[C@H]3N)O[C@@H]2CO)[C@H](N)[C@@H](O)[C@@H]1O [aminosidine]
- dogs remaining positive for parasites (culture, PCR of lymph node, parasitological aspect) (dog, in vivo): 4/4
- dogs with absence of symptoms and parasites for 4 years (higher doses): 3/12
- dogs with relapse (higher doses): 9
